Data reported in ChEMBL document CHEMBL2396635, “Design, synthesis, and DNA binding characteristics of a group of orthogonally positioned diamino, N-formamido, pyrrole- and imidazole-containing polyamides” (Bioorg Med Chem, 2013).
One block for each compound: values may come before it. The source made the active and inactive calls. The rule behind the calls is not given here.

Tests used:
[1] = Binding affinity to 5'-ACGCGT-3' DNA (unknown origin) at 80 uM at 25 degC by ITC method
[2] = Binding affinity to 5'-ATCGAT-3' of 11 bp hairpin DNA oligonucleotide (unknown origin) in cacodylic acid buffer at pH 6.5 at 25 degC by SPR analysis
[3] = Binding affinity to 5'-ATGCAT-3' of 11 bp hairpin DNA oligonucleotide (unknown origin) in cacodylic acid buffer at pH 6.5 at 25 degC by SPR analysis
[4] = Binding affinity to 5'-AAATTT-3' of hairpin DNA (unknown origin) in cacodylic acid buffer at pH 6.5 at 25 degC by SPR analysis
[5] = Binding affinity to 5'-ACGCGT-3' of hairpin DNA (unknown origin) in cacodylic acid buffer at pH 6.5 at 25 degC by SPR analysis
[6] = system: Nucleic Acid; assay: Binding affinity to 5'-ATCGAT-3' of hairpin DNA (unknown origin) in cacodylic acid buffer at pH 6.5 assessed as change in melting temperature at 3 uM by thermal denaturation assay; type: nucleic-acid assay
[7] = system: Nucleic Acid; assay: Binding affinity to 5'-AAATTT-3' of hairpin DNA (unknown origin) in cacodylic acid buffer at pH 6.5 assessed as change in melting temperature at 3 uM by thermal denaturation assay; type: nucleic-acid assay
[8] = system: Nucleic Acid; assay: Binding affinity to 5'-ATGCAT-3' of hairpin DNA (unknown origin) in cacodylic acid buffer at pH 6.5 assessed as change in melting temperature at 3 uM by thermal denaturation assay; type: nucleic-acid assay
[9] = system: Nucleic Acid; assay: Binding affinity to 5'-ACGCGT-3' of hairpin DNA (unknown origin) in cacodylic acid buffer at pH 6.5 assessed as change in melting temperature at 3 uM by thermal denaturation assay; type: nucleic-acid assay
[10] = Binding affinity to 5'-ACGCGT-3' of hairpin DNA (unknown origin) in 10 mM phosphate buffer at pH 6.2 at 1 mol equivalent of compound by CD titration method
[11] = Binding affinity to 5'-ACGCGT-3' of DNA fragment (unknown origin) in Tris buffer at pH 7 at 0.05 uM by DNA footprinting
[12] = Binding affinity to 5'-ATCGAT-3' of hairpin DNA (unknown origin) in cacodylic acid buffer at pH 6.5 at 25 degC by SPR analysis
[13] = Binding affinity to 5'-ATGCAT-3' of hairpin DNA (unknown origin) in cacodylic acid buffer at pH 6.5 at 25 degC by SPR analysis
[14] = Binding affinity to 5'-AAATTT-3' DNA (unknown origin) at 80 uM at 25 degC by ITC method
[15] = Binding affinity to 5'-AAATTT-3' of DNA fragment (unknown origin) in Tris buffer at pH 7 at 20 uM by DNA footprinting
[16] = Binding affinity to 5'-AAATTT-3' of 11 bp hairpin DNA oligonucleotide (unknown origin) in cacodylic acid buffer at pH 6.5 at 25 degC by SPR analysis
[17] = Binding affinity to 5'-ATCGAT-3' DNA (unknown origin) at 80 uM at 25 degC by ITC method
[18] = Selectivity for 5'-TACGAT-3' of topoisomerase 2alpha promoter (unknown origin) over 5'-CTGCTTC-3' of topoisomerase 2alpha promoter (unknown origin)
[19] = Binding affinity to 5'-CTGCTTC-3' of topoisomerase 2alpha promoter (unknown origin) in Tris buffer at pH 7 at 30 uM by DNA footprinting
[20] = Binding affinity to 5'-TACGAT-3' of topoisomerase 2alpha promoter (unknown origin) in Tris buffer at pH 7 at 10 uM by DNA footprinting
[21] = Binding affinity to 5'-AAATTT-3' of hairpin DNA (unknown origin) in 10 mM phosphate buffer at pH 6.2 at 1 mol equivalent of compound by CD titration method
[22] = Binding affinity to 5'-AAATTT-3' of DNA fragment (unknown origin) in Tris buffer at pH 7 at 30 uM by DNA footprinting
[23] = Binding affinity to 5'-ATCGAT-3' of hairpin DNA (unknown origin) in 10 mM phosphate buffer at pH 6.2 at 1 mol equivalent of compound by CD titration method
[24] = Binding affinity to 5'-ATGCAT-3' DNA (unknown origin) at 80 uM at 25 degC by ITC method
[25] = Binding affinity to 5'-ATGCAT-3' of hairpin DNA (unknown origin) in 10 mM phosphate buffer at pH 6.2 at 1 mol equivalent of compound by CD titration method
[26] = Binding affinity to 5'-ACTAGT-3' of DNA fragment (unknown origin) in Tris buffer at pH 7 at 1 uM by DNA footprinting
[27] = Binding affinity to 5'-ACGCGT-3' of DNA fragment (unknown origin) in Tris buffer at pH 7 at 1 uM by DNA footprinting
[28] = Binding affinity to 5'-ATGCAT-3' of DNA fragment (unknown origin) in Tris buffer at pH 7 at 1 uM by DNA footprinting
[29] = Binding affinity to 5'-ACGCGT-3' of 11 bp hairpin DNA oligonucleotide (unknown origin) in cacodylic acid buffer at pH 6.5 at 25 degC by SPR analysis

SMILES: CN(C)CCNC(=O)c1nc(NC(=O)c2cc(NC(=O)c3nc(NC=O)cn3C)cn2C)cn1C
- Activity [1]: Active
- Ke [2]: 1 ×10⁵ /M
- Ke [3]: 1.2 ×10⁷ /M
- Ke [4]: 5.3 ×10⁴ /M
- Ke [5]: 5.4 ×10⁷ /M
- ΔTm [6]: 1 °C
- ΔTm [7]: 1 °C
- ΔTm [8]: 9 °C
- ΔTm [9]: 9 °C

SMILES: CN(C)CCCNC(=O)c1cc(NC(=O)c2cc(NC(=O)c3cc(NC=O)cn3C)cn2C)cn1C
- Activity [14]: Active
- Activity [15]: Active
- Ke [16]: 3.2 ×10⁶ /M
- ΔTm [6]: 1 °C
- ΔTm [7]: 9 °C

SMILES: CN(C)CCCNC(=O)c1cc(NC(=O)c2nc(NC(=O)c3cc(NC=O)cn3C)cn2C)cn1C
- Activity [17]: Active
- Selectivity ratio [18]: 3
- Activity [19]: Active
- Activity [20]: Active
- Ke [12]: 2 ×10⁵ /M
- ΔTm [6]: 0 °C
- ΔTm [9]: 3 °C

SMILES: CN(C)CCCNC(=O)c1cc(NC(=O)c2cc(NC(=O)c3nc(NC=O)cn3C)cn2CCCN)cn1C
- Activity [24]: Active
- Activity [25]: Active
- Activity [26]: Active
- Activity [27]: Active
- Activity [28]: Active
- Ke [12]: 2.7 ×10⁶ /M
- Ke [13]: 1.3 ×10⁸ /M
- Ke [5]: 2.3 ×10⁶ /M
- ΔTm [6]: 7 °C
- ΔTm [7]: 0 °C
- ΔTm [8]: 26 °C
- ΔTm [9]: 0 °C

Results, then the compound that gave them:

- Activity [1]: Active
- Activity [10]: Active
- Activity [11]: Active
- Ke [12]: 1.7 ×10⁶ /M
- Ke [13]: 3.5 ×10⁷ /M
- Ke [5]: 2.4 ×10⁸ /M
- ΔTm [6]: 11 °C
- ΔTm [7]: 10 °C
- ΔTm [8]: 24 °C
- ΔTm [9]: > 24 °C
SMILES: CN(C)CCNC(=O)c1nc(NC(=O)c2cc(NC(=O)c3nc(NC=O)cn3C)cn2CCCN)cn1C

- Activity [14]: Active
- Activity [21]: Active
- Activity [22]: Active
- Activity [15]: Active
- Ke [4]: 4.8 ×10⁷ /M
- ΔTm [6]: 10 °C
- ΔTm [7]: 25 °C
- ΔTm [9]: 0 °C
SMILES: CN(C)CCCNC(=O)c1cc(NC(=O)c2cc(NC(=O)c3cc(NC=O)cn3C)cn2CCCN)cn1C

- Activity [17]: Active
- Activity [23]: Active
- Selectivity ratio [18]: 3
- Activity [19]: Active
- Activity [20]: Active
- Ke [12]: < 1 ×10⁵ /M
- ΔTm [6]: 0 °C
- ΔTm [7]: 10 °C
- ΔTm [9]: 0 °C
SMILES: CN(C)CCCNC(=O)c1cc(NC(=O)c2nc(NC(=O)c3cc(NC=O)cn3CCCN)cn2C)cn1C

- Activity [24]: Active
- Ke [2]: 9.4 ×10⁴ /M
- Ke [29]: 8.8 ×10⁴ /M
- Ke [3]: 1.2 ×10⁷ /M
- ΔTm [6]: 3 °C
- ΔTm [8]: 11 °C
- ΔTm [9]: 2 °C
SMILES: CN(C)CCCNC(=O)c1cc(NC(=O)c2cc(NC(=O)c3nc(NC=O)cn3C)cn2C)cn1C
